Results taken from patent publication EP0371366A1, “Antiviral agents” (priority 1988, dated 1990).
Where two headings read alike, the source gives them in different places. Marks after values point to notes of the source that are not given here. Values belong to the compound of their own block, whether it stands above or below them.

Key:
HIV (LAV Strain) = assay: Antiviral activity in HIV-infected A301 (Alex) cells, reverse transcriptase level readout; assay type: cell-based; settings: Human immunodeficiency virus 1
Description: This procedure is a modification of a procedure initially described by Chen et al., Biochemical Pharmacology. 36 (24), 4361-4362 (1987).
(§1) A301 (Alex) cells are pre-infected with a constant amount of HIV (LAV Strain) for three hours at 37° C. Test compounds and AZT (control) are added to the infected cells in two, three or five-fold dilutions, out four places for screening and eight places for confirmation. Unless mentioned the highest concentration is […]. The test plates are incubated in C02 at 37` C for up to twelve days (incubation time depends on virus pool titer) with a partial medium/sample change midpoint through the incubation period. Uninfected A301 cells with sample dilutions, but without virus, are used to evaluate cytotoxicity.
Reverse transcriptase levels are assayed at the end of the incubation period as follows, to determine if antiviral activity is present.
[…] of medium from the HIV infected Alex cells is added to 10 mL of 3.2% Triton X-100. This solution is incubated for 30 minutes at 37° C, then 25 mL of 4X assay mix is added to it. The 4X assay mix contains [^3H]TTP, poly(A).oligo(dT), potassium chloride, magnesium chloride, dithiothreitol, and Tris-HCI buffer, pH8.0. […] The radioactivity remaining on the 3MM paper is quantitated by scintillation counter, and corresponds to reverse transcriptase level.

[1] = Cytotoxicity in uninfected A301 (Alex) cells; assay type: cell-based; settings: human, read-out: Cell Toxicity Partial
Description: as §1

Uninfected A301 cells = assay: Cytotoxicity in uninfected A301 (Alex) cells; assay type: cell-based
Description: as §1

HIV = settings: background statement on prior art; cited from earlier work
[2] = background statement on prior art; cited from earlier work
[3] = system: Friend leukemia virus complex (FLVC); assay type: in vivo, Balb/c mice; settings: daily dose 120 mg/kg i.p. for 9 days
Description: This procedure is a modification of a procedure initially described by Jones et al., Journal of Virology, 62 (2), 511-51,8 (1988), or by modifications thereof.
Friend leukemia virus complex (FLVC) was used. This retrovirus complex consists of both helper and defective virus particles.
Six week old female Balb/c mice from Bantin and Kingman, each weighing on the average of 18 gm, received 0.2ml of a solution (comprised of virus diluted in PBS containing 0.002 M EDTA) administered at 20 FFU/mouse, intravenously. Treatments began 4 hours after infection and continued for 9 days. AZT and 4'-azidothymidine were administered at 60 mg/kg/dose twice daily on Days 0, 4, and 5; and on Days 1-3 and 6-8 were administered 3 times daily at 40 mg/kg/dose. 2 3 -Dideoxycytidine was administered at 120 mg/kg/dose twice daily on days 0, 4, and 5; and on days 1-3 and 6-8 was administered 3 times daily at 80 mg/kg/dose. All treatments were given intraperitoneally, 0.5mi/dose. On day 9 after infection the spleens were removed, stained and fixed in Bouin's solution for 2 hours and then weighed. Foci were counted on spleens. A standard t-test was run to compare difference in spleen weights and difference in number of foci-forming units (FFU's) per spleen between groups.

[4] = system: Erythroid Colonies, CFU-E; assay: CFU-E assay (late erythroid precursors), human hematopoietic cell toxicity; assay type: cell-based
Text: (§2) This procedure is a modification of procedures initially described by Diainiak, et al., British Journal of Haematology, 69, 229-304 (1988), or as described by Sommadossi, et al., Agents and Chemotherapy, 31-(3), 452-454 (1987).
(§3) The effect of 4 -azidothymidine and AZT on the formation of erythroid and GM colonies from precursors in human peripheral blood and bone marrow were compared; from which the inhibition of 4 -azidothymidine and AZT against human hematopoietic cells were compared.
In each experiment peripheral blood or bone marrow from a single donor was used. […]
MN were cultured at a concentration of 3 x 10^5 cells/ml. The culture medium consisted of Iscove's Modified Eagle Medium (Gibco) supplemented with 30% heat-inactiviated FCS (Hyclone), penicillin ([…]), streptomycin ([…]), 2-mercaptoethanol (1 x 10^-4, 1% deionized bovine serum albumin (BSA, Sigma), DEAE-Dextran 40 mg/ml (Pharmacia), 0.8% methylcellulose (4000 Centipose, Fisher), and erythropoietin 2 U/ml (Connaught Laboratories). Cells were plated in 96-well plates ([…]) and incubated at 37^*C with 5% C02 in air (100% humidity) for 7-14 days. CFU-E colonies were counted on Days 7-8. Clusters of 8 or more hemoglobinized cells were considered as a colony. BFU-E colonies were counted on Day 14. Aggregates of 50 or more cells were counted as a colony. […]

[5] = system: Granulocyte-Macrophage Colonies (CFU-GM); assay: CFU-GM assay (myeloid precursors), human hematopoietic cell toxicity; assay type: cell-based
Text: as §2, §3
In each experiment peripheral blood or bone marrow from a single donor was used. Human peripheral blood mononuclear cells (PBL) were separated from heparinized blood of drug-free donors by density-gradient centrifugation in Ficoll (Pharmacia). Whole blood diluted 1:1 with Hanks' balanced salt solution (HBSS, Gibco) was layered on the top of Ficoll and centrifuged at 400 x g for 30 min. Cells were collected from the interphase and after washing, the concentration was adjusted to 2x10^6 cells/mL in RPMI-1640 medium with 25 mM Hepes buffer (Gibco). Monocytes were removed by adherence to plastic in large Petri dishes (150x15mm), adding 20 ml of the cell suspension/dish, and incubating for 1 hour at 37° C. Nonadherent mononuclear cells (MN) were removed by vigorous washing of the Petri dish with warm (37°C) HBSS.
Bone marrow aspirates from healthy donors were collected in heparizined syringes. The whole mononuclear cell fraction was separated by Ficoll-Paque density-gradient centrifugation (400 x g for 30 min). Cells collected from the interphase were washed 3 times in HBSS and resuspended in culture medium as described below for CFU-GM assay.
MN (1.5x10^6 cells/ml) and BM (1.x10^5 cells/ml) were cultured in complete medium as follows: Dulbecco's Modified Eagle Medium (DMEM, Gibco) supplemented with 20% heat-inactivated fetal calf serum (FCS, Hyclone), 2 mM L-glutamine, 5 x 10-^5 M 2-mercaptoethanol, penicillin (100 U/ml), streptomycin ([…]), and 0.3% bacto-agar (Difco). All supplements were from Gibco, unless otherwise specified. Cells were plated in 35x100 mm Lux Petri dishes (suspension dishes) in triplicate, and incubated at 37°C with 5% CO2 in air at 100% humidity. A supernatant from a T-cell line (GCT, Gibco), containing GM-Colony Stimlating Factor (GM-CSF), was used at a final concentration of 10% in complete medium. Tested compounds were added to the test dishes at concentrations of 10-^9 to 10-^4 M. Cells were incubated in air containing 5% CO2 (100% humidity) at 37°C for 14 days. Colonies were counted under a dissecting microscope. A CFU-GM colony was defined as a cluster of 50 or more cells consisting of granulocytes, monocyte-macrophages, or both.
All tests were performed in triplicate. The 50% inhibitory concentrations (ICso) for all types of colonies were determined using an RS 1 program on an IBM-PC.

SMILES: Cc1cn([C@H]2C[C@H](N=[N+]=[N-])[C@@H](CO)O2)c(=O)[nH]c1=O [3'-azidothymidine, reference compound]
EC50 (HIV (LAV Strain)): 0.01 µM | MCC [1]: 825 µM | Cell Toxicity Complete (Uninfected A301 cells): 3300 µM

SMILES: [N-]=[N+]=N[C@]1(CO)O[C@@H](n2ccc(N)nc2=O)[C@H](O)[C@@H]1O [4 -azidocytidine]
anti-HIV activity (HIV): devoid of anti-HIV activity | cytotoxicity [2]: cytotoxic

EC50 (HIV (LAV Strain); A301 (Alex) cells pre-infected with HIV (LAV Strain), reverse transcriptase levels at end of incubation, read-out: EC50): 0.01 µM
SMILES: Cc1cn([C@H]2C[C@H](O)[C@](CO)(N=[N+]=[N-])O2)c(=O)[nH]c1=O [4'-azidothymidine]
Inhibition of Splenomegaly [3]: 75% | FFU/Spleen ([3]; Day 9): ≥26 FFU/Spleen | Spleen Weight ([3]; weighed on Day 9 after infection): 0.190^d gm | IC50 ([4]; BM (1 experiment)): 27 µM | IC50 ([5]; bone marrow, experiment 1, listed as 2, read-out: IC50 BM 1): 2.01 µM | IC50 ([5]; bone marrow, experiment 2, listed as 2, read-out: IC50 BM 2): 0.9 µM | IC50 ([5]; peripheral blood mononuclear cells, five separate experiments, listed as 2, read-out: IC50 PBM Mean ±SE): 4.83 ± 1.42 µM | MCC [1]: 8 µM | Cell Toxicity Complete (Uninfected A301 cells): 200 µM

SMILES: Cc1cn([C@H]2C[C@H](O)[C@](CO)(N=[N+]=[N-])O2)c(=O)[nH]c1=O [Compound 1]
IC50 ([4]; PBM (3 experiments)): > 100 µM | IC50 ([5]; bone marrow, experiment 1, read-out: IC50 BM 1): 21.1 µM | IC50 ([5]; bone marrow, experiment 2, read-out: IC50 BM 2): 13.6 µM | IC50 ([5]; peripheral blood mononuclear cells, five separate experiments, read-out: IC50 PBM Mean ±SE): 20.7 ± 1.73 µM
